In patent US10421774B2 (priority 2016, dated 2019):

Assays:
Experiment in all cases: microbe, parasite or virus in culture
Type in all cases: cell-based, HIV-1
[1] = tested on: NLRepRlucP373S recombinant wild type (WT) virus; details: Human immunodeficiency virus 1, MT2, read-out: WT EC50
Summary of the method: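 MT-2 cells infected with NLRepRlucP373S Renilla luciferase reporter virus (NL4-3, Gag P373S), inocula normalized by luciferase signal; compounds 3-fold serially diluted, 1% DMSO final. Virus yield read by Renilla luciferase after 4-5 days at 37 °C. EC50/EC90 from median effect equation; background = signal at NFV 3 μM.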

[2] = tested on: A364V site directed mutant virus; details: Human immunodeficiency virus 1, MT2, read-out: A364V EC50
Summary of the method: (§1)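 Multiple-cycle assay in MT-2 cells infected with Renilla luciferase NL4-3 (Gag P373S background) carrying site-directed Gag A364V or V370A/ΔT371 changes, inocula normalized by luciferase signal. 10,000 cells/well, 3-fold compound dilutions, 1% DMSO, 4–5 days at 37°C; yield read as Renilla luciferase.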

gag V370A/ΔT371 virus = details: Human immunodeficiency virus 1, MT2, read-out: V370A/ΔT371 EC50
Summary of the method: as §1

[3] = tested on: T332S/V362I/Pr R41G virus; details: Human immunodeficiency virus 1, MT2, read-out: T332S/V362I/pr41G EC50
Summary of the method: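 Renilla luciferase NL4-3 reporter virus (Gag P373S background) carrying Gag T332S/V362I plus protease R41G, inoculum normalized by luciferase signal, infected MT-2 cells (10,000/well). Compounds 3-fold diluted, 1% DMSO final. After 4–5 days at 37 °C, virus yield measured as Renilla luciferase activity in a multiple-cycle assay.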

| Compound | EC50 [1] [µM] | EC50 [2] [µM] | EC50 (gag V370A/ΔT371 virus) [µM] | EC50 [3] [µM] |
| --- | --- | --- | --- | --- |
| C=C(C)[C@@H]1CC[C@]2(NCCN3CCS(=O)(=O)CC3)CC[C@]3(C)[C@H](CC[C@@H]4[C@@]5(C)CC=C(C6=CC[C@](COc7ccncn7)(C(=O)O)CC6)C(C)(C)[C@@H]5CC[C@]43C)[C@@H]12 [Example 21] | < 0.05 | < 0.05 | > 0.05 | > 0.05 |
| C=C(C)[C@@H]1CC[C@]2(NCCN3CCS(=O)(=O)CC3)CC[C@]3(C)[C@H](CC[C@@H]4[C@@]5(C)CC=C(C6=CCC(COc7cc(C)sn7)(C(=O)O)CC6)C(C)(C)[C@@H]5CC[C@]43C)[C@@H]12 (stereo partly drawn) [Example 12] | < 0.05 | < 0.05 | < 0.05 | < 0.05 |
| C=C(C)[C@@H]1CC[C@]2(NCCN3CCS(=O)(=O)CC3)CC[C@]3(C)[C@H](CC[C@@H]4[C@@]5(C)CC=C(C6=CCC(CCOc7cnccn7)(C(=O)O)CC6)C(C)(C)[C@@H]5CC[C@]43C)[C@@H]12 (stereo partly drawn) [Example A31, 4-((1R,3aS,5aR,5bR,7aR,11aS,11bR,13aR,13bR)-3a-((2-(1,1-dioxidothiomorpholino)ethyl)amino)-5a,5b,8,8,11a-pentamethyl-1-(prop-1-en-2-yl)-2,3,3a,4,5,5a,5b,6,7,7a,8,11,11a,11b,12,13,13a,13b-octadecahydro-1H-cyclopenta[a]chrysen-9-yl)-1-(2-(pyrazin-2-yloxy)ethyl)cyclohex-3-ene-1-carboxylic acid] | 0.003 | 3 | > 0.05 | > 0.05 |
| C=C(C)[C@@H]1CC[C@]2(NCC(C)(O)C(=O)O)CC[C@]3(C)[C@H](CC[C@@H]4[C@@]5(C)CC=C(C6=CC[C@](COc7ncccc7C#N)(C(=O)O)CC6)C(C)(C)[C@@H]5CC[C@]43C)[C@@H]12 (stereo partly drawn) [Example A19, (1R)-4-((1R,3aS,5aR,5bR,7aR,11aS,11bR,13aR,13bR)-3a-((2-carboxy-2-hydroxypropyl)amino)-5a,5b,8,8,11a-pentamethyl-1-(prop-1-en-2-yl)-2,3,3a,4,5,5a,5b,6,7,7a,8,11,11a,11b,12,13,13a,13b-octadecahydro-1H-cyclopenta[a]chrysen-9-yl)-1-(((3-cyanopyridin-2-yl)oxy)methyl)cyclohex-3-enecarboxylic acid] | 0.003 | > 0.05 | 0.02 | 0.02 |
| C=C(C)[C@@H]1CC[C@]2(NCCN3CCS(=O)(=O)CC3)CC[C@]3(C)[C@H](CC[C@@H]4[C@@]5(C)CC=C(C6=CCC(CCOc7cc(Cl)ccn7)(C(=O)O)CC6)C(C)(C)[C@@H]5CC[C@]43C)[C@@H]12 (stereo partly drawn) [Example A34, 1-(2-((4-chloropyridin-2-yl)oxy)ethyl)-4-((1R,3aS,5aR,5bR,7aR,11aS,11bR,13aR,13bR)-3a-((2-(1,1-dioxidothiomorpholino)ethyl)amino)-5a,5b,8,8,11a-pentamethyl-1-(prop-1-en-2-yl)-2,3,3a,4,5,5a,5b,6,7,7a,8,11,11a,11b,12,13,13a,13b-octadecahydro-1H-cyclopenta[a]chrysen-9-yl)cyclohex-3-ene-1-carboxylic acid] | 0.002 | 0.064 | > 0.05 | 0.096 |
| C=C(C)[C@@H]1CC[C@]2(NCCN3CCS(=O)(=O)CC3)CC[C@]3(C)[C@H](CC[C@@H]4[C@@]5(C)CC=C(C6=CCC(CCOc7cc(C#N)ccn7)(C(=O)O)CC6)C(C)(C)[C@@H]5CC[C@]43C)[C@@H]12 (stereo partly drawn) [Example A24, 1-(2-((4-cyanopyridin-2-yl)oxy)ethyl)-4-((1R,3aS,5aR,5bR,7aR,11aS,11bR,13aR,13bR)-3a-((2-(1,1-dioxidothiomorpholino)ethyl)amino)-5a,5b,8,8,11a-pentamethyl-1-(prop-1-en-2-yl)-2,3,3a,4,5,5a,5b,6,7,7a,8,11,11a,11b,12,13,13a,13b-octadecahydro-1H-cyclopenta[a]chrysen-9-yl)cyclohex-3-ene-1-carboxylic acid] | 0.001 | 0.007 | 3 | 3 |
| C=C(C)[C@@H]1CC[C@]2(NCCN3CCS(=O)(=O)CC3)CC[C@]3(C)[C@H](CC[C@@H]4[C@@]5(C)CC=C(C6=CCC(COc7cccnn7)(C(=O)O)CC6)C(C)(C)[C@@H]5CC[C@]43C)[C@@H]12 (stereo partly drawn) [Example 19, 4-((1R,3aS,5aR,5bR,7aR,11aS,11bR,13aR,13bR)-3a-((2-(1,1-dioxidothiomorpholino)ethyl)amino)-5a,5b,8,8,11a-pentamethyl-1-(prop-1-en-2-yl)-2,3,3a,4,5,5a,5b,6,7,7a,8,11,11a,11 b,12,13,13a,13b-octadecahydro-1H-cyclopenta[a]chrysen-9-yl)-1-((pyridazin-3-yloxy)methyl)cyclohex-3-ene-1-carboxylic acid] | 0.003 | 0.036 | 0.047 | 0.047 |
| C=C(C)[C@@H]1CC[C@]2(NCCN3CCS(=O)(=O)CC3)CC[C@]3(C)[C@H](CC[C@@H]4[C@@]5(C)CC=C(C6=CCC(COc7cc(C#N)ccn7)(C(=O)O)CC6)C(C)(C)[C@@H]5CC[C@]43C)[C@@H]12 (stereo partly drawn) [Example 37, 1-(((4-cyanopyridin-2-yl)oxy)methyl)-4-((1R,3aS,5aR,5bR,7aR,11aS,11bR,13aR,13bR)-3a-((2-(1,1-dioxidothiomorpholino)ethyl)amino)-5a,5b,8,8,11a-pentamethyl-1-(prop-1-en-2-yl)-2,3,3a,4,5,5a,5b,6,7,7a,8,11,11a,11b,12,13,13a,13b-octadecahydro-1H-cyclopenta[a]chrysen-9-yl)cyclohex-3-ene-1-carboxylic acid] | < 0.05 | > 0.05 | > 0.05 | > 0.05 |
| C=C(C)[C@@H]1CC[C@]2(NCCN3CCS(=O)(=O)CC3)CC[C@]3(C)[C@H](CC[C@@H]4[C@@]5(C)CC=C(C6=CCC(CCOc7nccc(C)n7)(C(=O)O)CC6)C(C)(C)[C@@H]5CC[C@]43C)[C@@H]12 (stereo partly drawn) [Example A26, 4-((1R,3aS,5aR,5bR,7aR,11aS,11bR,13aR,13bR)-3a-((2-(1,1-dioxidothiomorpholino)ethyl)amino)-5a,5b,8,8,11a-pentamethyl-1-(prop-1-en-2-yl)-2,3,3a,4,5,5a,5b,6,7,7a,8,11,11a,11b,12,13,13a,13b-octadecahydro-1H-cyclopenta[a]chrysen-9-yl)-1-(2-((4-methylpyrimidin-2-yl)oxy)ethyl)cyclohex-3-ene-1-carboxylic acid] | 0.005 | > 0.05 | > 0.05 | > 0.05 |
| C=C(C)[C@@H]1CC[C@]2(NC[C@@](C)(O)CO)CC[C@]3(C)[C@H](CC[C@@H]4[C@@]5(C)CC=C(C6=CC[C@](COc7ncccc7C(N)=O)(C(=O)O)CC6)C(C)(C)[C@@H]5CC[C@]43C)[C@@H]12 [Example A14, (R)-1-(((3-carbamoylpyridin-2-yl)oxy)methyl)-4-((1R,3aS,5aR,5bR,7aR,11aS,11bR,13aR,13bR)-3a-(((R)-2,3-dihydroxy-2-methylpropyl)amino)-5a,5b,8,8,11a-pentamethyl-1-(prop-1-en-2-yl)-2,3,3a,4,5,5a,5b,6,7,7a,8,11,11a,11b,12,13,13a,13b-octadecahydro-1H-cyclopenta[a]chrysen-9-yl)cyclohex-3-enecarboxylic acid] | 0.005 | 0.114 | 0.11 | 0.11 |
| C=C(C)[C@@H]1CC[C@]2(NCCN3CCS(=O)(=O)CC3)CC[C@]3(C)[C@H](CC[C@@H]4[C@@]5(C)CC=C(C6=CCC(CCOc7cc(C)sn7)(C(=O)O)CC6)C(C)(C)[C@@H]5CC[C@]43C)[C@@H]12 (stereo partly drawn) [Example A21, 4-((1R,3aS,5aR,5bR,7aR,11aS,11bR,13aR,13bR)-3a-((2-(1,1-dioxidothiomorpholino)ethyl)amino)-5a,5b,8,8,11a-pentamethyl-1-(prop-1-en-2-yl)-2,3,3a,4,5,5a,5b,6,7,7a,8,11,11a,11b,12,13,13a,13b-octadecahydro-1H-cyclopenta[a]chrysen-9-yl)-1-(2-((5-methylisothiazol-3-yl)oxy)ethyl)cyclohex-3-ene-1-carboxylic acid] | 0.003 | 0.017 | 0.018 | 0.018 |
| C=C(C)[C@@H]1CC[C@]2(NCCN3CCS(=O)(=O)CC3)CC[C@]3(C)[C@H](CC[C@@H]4[C@@]5(C)CC=C(C6=CCC(COc7nc(C(=O)O)cs7)(C(=O)O)CC6)C(C)(C)[C@@H]5CC[C@]43C)[C@@H]12 (stereo partly drawn) [Example 4, 2-((1-carboxy-4-((1R,3aS,5aR,5bR,7aR,11aS,11bR,13aR,13bR)-3a-((2-(1,1-dioxidothiomorpholino)ethyl)amino)-5a,5b,8,8,11a-pentamethyl-1-(prop-1-en-2-yl)-2,3,3a,4,5,5a,5b,6,7,7a,8,11,11a,11b,12,13,13a,13b-octadecahydro-1H-cyclopentatalchrysen-9-yl)cyclohex-3-en-1-yl)methoxy)thiazole-4-carboxylic acid] | > 0.05 | > 0.05 | > 0.05 | > 0.05 |
